Measurements taken from patent US8802094B2, “Method of reducing phosphate absorption by administering orally an IgY anti-intestinal sodium phosphate cotransporter type 2B antibody” (Wisconsin Alumni Research Foundation, priority 2006, dated 2014).

Tested on: chicken intestinal alkaline phosphatase
Test: Feeding anti-intestinal alkaline phosphatase egg antibody to chicks with active vitamin D: plasma phosphorous
Format: in vivo, chicken (Single Comb White Leghorn chicks)
Details: leghorn chicks, 10 days
Description: Single Comb White Leghorn laying hens were used for antibody production (3 hens per peptide antigen). Chicken intestinal alkaline phosphatase was purchased from Worthington. To prepare a vaccine for each hen 0.5 mg of chicken intestinal alkaline phosphatase was diluted to a final concentration of 0.5 ml PBS and mixed with 0.5 ml of Freund's complete adjuvant (first injection) or incomplete adjuvant (booster vaccination) to form a water in oil emulsification capable of holding a bead when dripped on ice water. The hen was then injected in four sites (each leg and each breast) with 0.25 ml of the vaccine emulsion intramuscularly. The booster injection in incomplete adjuvant occurred 7 days later.
In approximately 30 day lots, egg yolks from each hen were separated from whole eggs, mixed and lyophilized. Dried egg yolk powder containing the antibody was stored at room temperature until use in animal feeding studies.
The chicken model used in this study was described by Biehl and Baker, J. Nutr. 1997, 127:2054-2059 with the exception of antibodies to intestinal alkaline phosphatas. The negative control used in this study was a Pi deficient diet (Pi=inorganic phosphate which are largely mineral phosphates or phosphate from animal tissues and products such as milk and eggs), where the dietary phosphorous used was phytic phosphate. […]

C=C1/C(=C\C=C2/CCC[C@]3(C)[C@@H]([C@H](C)CCCC(C)C)CC[C@@H]23)C[C@@H](O)C[C@@H]1O [Active vitamin D, 1α-hydroxyvitamin D3]
effect on plasma phosphorous levels (in words) (Pi deficient diet, antibody vs active vitamin D alone, vitamin D vs negative control): increased blood phosphorous levels in comparison to the negative control
Plasma phosphate (Pi deficient phytic phosphorous diet, 1α-hydroxyvitamin D3 20 μg/kg diet alone or plus antibody 1 g/kg diet): 6.70 mg/dL
